Where two headings read alike, the source gives them in different places.
Assays:
[1] = system: Key Broadleaf Weed and Crop Species; assay: Post-emergent Test II herbicidal activity (Table 15); assay type: in vivo; details: post-emergence, 336 h, 140 g ai/ha, 14 d
In short: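 Visual injury rating (0 = none, 100 = complete kill) taken 14 d after treatment, relative to untreated plants. Compounds in acetone/DMSO with crop oil concentrate and Triton X-155 were track-sprayed at 187 L/ha onto seedlings at the first-second true leaf stage.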

[2] = system: Key Grass and Sedge Weeds as well as Grass Crops; assay: Post-emergent Test II herbicidal activity (Table 16); assay type: in vivo; details: post-emergence, 336 h, 140 g ai/ha
Experimental: Post-emergent Test II: Seeds or nutlets of the desired test plant species were planted in Sun Gro Metro-Mix® 360 planting mixture, which typically has a pH of 6.0 to 6.8 and an organic matter content of about 30 percent, in plastic pots with a surface area of 64 square centimeters. When required to ensure good germination and healthy plants, a fungicide treatment and/or other chemical or physical treatment was applied. The plants were grown for 7-21 d in a greenhouse with an approximate 15 h photoperiod which was maintained at about 23-29° C. during the day and 22-28° C. during the night. Nutrients and water were added on a regular basis and supplemental lighting was provided with overhead metal halide 1000-Watt lamps as necessary. The plants were employed for testing when they reached the first or second true leaf stage.
A weighed amount, determined by the highest rate to be tested, of each test compound was placed in a 25 mL glass vial and was dissolved in 4 mL of a 97:3 v/v mixture of acetone and DMSO to obtain concentrated stock solutions. […] The concentrated stock solutions obtained were diluted with 20 mL of an aqueous mixture containing acetone, water, isopropyl alcohol, DMSO, Atplus 411F crop oil concentrate, and Triton® X-155 surfactant in a 48.5:39:10:1.5:1.0:0.02 v/v ratio to obtain spray solutions containing the highest application rates. Additional application rates were obtained by serial dilution of 12 mL of the high rate solution into a solution containing 2 mL of 97:3 v/v mixture of acetone and DMSO and 10 mL of an aqueous mixture containing acetone, water, isopropyl alcohol, DMSO, Atplus 411F crop oil concentrate, and Triton X-155 surfactant in a 48.5:39:10:1.5:1.0:0.02 v/v ratio to obtain 1/2×, 1/4×, 1/8× and 1/16× rates of the high rate. Compound requirements are based upon a 12 mL application volume at a rate of 187 liters per hectare (L/ha). Formulated compounds were applied to the plant material with an overhead Mandel track sprayer equipped with 8002E nozzles calibrated to deliver 187 L/ha over an application area of 0.503 square meters at a spray height of 18 inches (43 cm) above the average plant canopy height. Control plants were sprayed in the same manner with the solvent blank.
The treated plants and control plants were placed in a greenhouse as described above and watered by subirrigation to prevent wash-off of the test compounds. After 14 d, the condition of the test plants as compared with that of the untreated plants was determined visually and scored on a scale of 0 to 100 percent where 0 corresponds to no injury and 100 corresponds to complete kill.

[3] = Abutilon theophrasti, velvetleaf (Abutilon theophrasti), read-out: Visual Growth Reduction (%) 14 Days After Application, ABUTH
[4] = Brassica napus, oilseed rape, canola (Brassica napus), read-out: Visual Growth Reduction (%) 14 Days After Application, BRSNN
[5] = Chenopodium album, lambsquarters (Chenopodium album), read-out: Visual Growth Reduction (%) 14 Days After Application, CHEAL
[6] = Euphorbia heterophylla, wild poinsettia (Euphorbia heterophylla), read-out: Visual Growth Reduction (%) 14 Days After Application, EPHHL
[7] = Helianthus annuus, sunflower (Helianthus annuus), read-out: Visual Growth Reduction (%) 14 Days After Application, HELAN

melting point [°C] | SMILES | pest or weed control at 140 g/ha [1, 3] [%] | pest or weed control at 140 g/ha ([1]; Amaranthus retroflexus, redroot pigweed (Amaranthus retroflexus), read-out: Visual Growth Reduction (%) 14 Days After Application, AMARE) [%] | pest or weed control at 140 g/ha [1, 4] [%] | pest or weed control at 140 g/ha [1, 5] [%] | pest or weed control at 140 g/ha [1, 6] [%] | pest or weed control at 140 g/ha [1, 7] [%] | pest or weed control at 140 g/ha ([2]; Cyperus esculentus, yellow nutsedge (Cyperus esculentus), 14 d, read-out: Visual Growth Reduction (%) 14 Days After Application, CYPES) [%] | pest or weed control at 140 g/ha ([2]; Echinochloa crus-galli, barnyardgrass (Echinochloa crus-galli), 14 d, read-out: Visual Growth Reduction (%) 14 Days After Application, ECHCG) [%] | pest or weed control at 140 g/ha ([2]; Oryza sativa, rice (Oryza sativa), 14 d, read-out: Visual Growth Reduction (%) 14 Days After Application, ORYSA) [%] | pest or weed control at 140 g/ha ([2]; Setaria faberi, giant foxtail (Setaria faberi), 14 d, read-out: Visual Growth Reduction (%) 14 Days After Application, SETFA) [%] | pest or weed control at 140 g/ha ([2]; Triticum aestivum, wheat, spring (Triticum aestivum), 14 d, read-out: Visual Growth Reduction (%) 14 Days After Application, TRZAS) [%] | pest or weed control at 140 g/ha ([2]; Zea mays, maize, corn (Zea mays), 14 d, read-out: Visual Growth Reduction (%) 14 Days After Application, ZEAMX) [%] | pest or weed control at 140 g/ha ([2]; Cyperus esculentus, yellow nutsedge (Cyperus esculentus), 14 days after application, read-out: Visual Growth Reduction (%) 14 Days After Application CYPES) [%] | pest or weed control at 140 g/ha ([2]; Echinochloa crus-galli, barnyardgrass (Echinochloa crus-galli), 14 days after application, read-out: Visual Growth Reduction (%) 14 Days After Application ECHCG) [%] | pest or weed control at 140 g/ha ([2]; Oryza sativa, rice (Oryza sativa), 14 days after application, read-out: Visual Growth Reduction (%) 14 Days After Application ORYSA) [%] | pest or weed control at 140 g/ha ([2]; Setaria faberi, giant foxtail (Setaria faberi), 14 days after application, read-out: Visual Growth Reduction (%) 14 Days After Application SETFA) [%] | pest or weed control at 140 g/ha ([2]; Triticum aestivum, wheat, spring (Triticum aestivum), 14 days after application, read-out: Visual Growth Reduction (%) 14 Days After Application TRZAS) [%] | pest or weed control at 140 g/ha ([2]; Zea mays, maize, corn (Zea mays), 14 days after application, read-out: Visual Growth Reduction (%) 14 Days After Application ZEAMX) [%]
170 to 173 | Nc1c(F)c(-c2cccc3occc23)nc(C(=O)O)c1Cl [Compound 2.17] | 75 to 84 | 95 to 100 | 75 to 84 | 95 to 100 | 95 to 100 | 85 to 94 | 95 to 100 | 75 to 84 | 0 to 29 | 0 to 29 | 0 to 29 | 30 to 44 |  |  |  |  |  | 
187 to 190 | COC(=O)c1nc(-c2ccc3cnn(C)c3c2)c(F)c(N)c1Cl [Compound 4.07] | 45 to 59 |  | 45 to 59 | 0 to 29 | 60 to 74 | 95 to 100 |  |  |  |  |  |  | 0 to 29 | 0 to 29 | 0 to 29 | 0 to 29 | 0 to 29 | 0 to 29

— US20170050957A1, “4-AMINO-6-(HETEROCYCLIC)PICOLINATES AND 6-AMINO-2-(HETEROCYCLIC)PYRIMIDINE-4-CARBOXYLATES AND THEIR USE AS HERBICIDES” (Dow AgroSciences LLC, priority 2013, published 2017)
